The test system of experiment [1] is RAW264.7. In words: Anti-inflammatory activity in mouse RAW264.7 cells assessed as inhibition of LPS-induced NO production in macrophages. The experiment is classed as functional, cell-based.
Experiment [2] concerns RAW264.7. In words: Anti-inflammatory activity in mouse RAW264.7 cells assessed as inhibition of LPS-induced NO production measured after 24 hrs. It is filed as functional, cell-based. The settings on record: RAW264.7, 24 h.
Experiment [3] concerns Rattus norvegicus. In words: Anti-inflammatory activity against formalin-induced foot paw edema in PO dosed rat at 10 mg/kg assessed as inhibition of edema measured after 4 hr relative to control. It is filed as functional.
For experiment [4], the system named is Rattus norvegicus. In words: Anti-inflammatory activity in Wistar rat assessed as reduced hind paw edema at 25 mg/kg relative to control. It is filed as functional. More on the design: scale not given: the % may be the effect or the level left.
Experiment [5] is described as follows: Selectivity index, ratio of IC50 for ovine COX1 to IC50 for recombinant human COX2.
The nature of experiment [6]: Anti-inflammatory activity assessed as heat -induced protein denaturation using hen egg albumin at 31.25 ug/ml relative to control. The experiment is classed as functional. The settings on record: dose 31.25 µg/ml.
Experiment [7] has as its system Rattus norvegicus. In words: Anti-inflammatory activity in Carageenan-induced foot paw edema in Swiss albino rat assessed as reduction in volume of paw edema measured after 6 hr relative to control. The experiment is classed as functional. Further details: scale not given: the % may be the effect or the level left.
Experiment [8] deals with Rattus norvegicus. In words: Anti-inflammatory activity in Carageenan-induced foot paw edema in Swiss albino rat assessed as reduction in volume of paw edema measured after 4 hr relative to control. The experiment is classed as functional. Further details: scale not given: the % may be the effect or the level left.
The subject of experiment [9] is Rattus norvegicus. In words: Anti-inflammatory activity in Carageenan-induced foot paw edema in Swiss albino rat assessed as reduction in volume of paw edema measured after 1 hr relative to control. The experiment is classed as functional. Further details: scale not given: the % may be the effect or the level left.
Experiment [10] deals with Rattus norvegicus. In words: Anti-inflammatory activity in Carageenan-induced foot paw edema in Swiss albino rat assessed as reduction in volume of paw edema measured after 2 hr relative to control. It is filed as functional. More on the design: scale not given: the % may be the effect or the level left.
In a further experiment the test system is Mus musculus. In words: Anti-inflammatory activity in Carrageenan-induced paw edema mouse model assessed as inhibition of granuloma measured after 24 hrs relative to control. It is filed as functional.
Experiment [11] deals with Rattus norvegicus. In words: Anti-inflammatory activity against formalin-induced foot paw edema in Wistar rat at 5 mg/kg, po assessed as inhibition of edema measured after 4 hr relative to control. It is filed as functional.
The target in experiment [12] is T1, Prostaglandin G/H synthase 2 (Homo sapiens) (UniProt P35354).
T1 sequence (whole entry): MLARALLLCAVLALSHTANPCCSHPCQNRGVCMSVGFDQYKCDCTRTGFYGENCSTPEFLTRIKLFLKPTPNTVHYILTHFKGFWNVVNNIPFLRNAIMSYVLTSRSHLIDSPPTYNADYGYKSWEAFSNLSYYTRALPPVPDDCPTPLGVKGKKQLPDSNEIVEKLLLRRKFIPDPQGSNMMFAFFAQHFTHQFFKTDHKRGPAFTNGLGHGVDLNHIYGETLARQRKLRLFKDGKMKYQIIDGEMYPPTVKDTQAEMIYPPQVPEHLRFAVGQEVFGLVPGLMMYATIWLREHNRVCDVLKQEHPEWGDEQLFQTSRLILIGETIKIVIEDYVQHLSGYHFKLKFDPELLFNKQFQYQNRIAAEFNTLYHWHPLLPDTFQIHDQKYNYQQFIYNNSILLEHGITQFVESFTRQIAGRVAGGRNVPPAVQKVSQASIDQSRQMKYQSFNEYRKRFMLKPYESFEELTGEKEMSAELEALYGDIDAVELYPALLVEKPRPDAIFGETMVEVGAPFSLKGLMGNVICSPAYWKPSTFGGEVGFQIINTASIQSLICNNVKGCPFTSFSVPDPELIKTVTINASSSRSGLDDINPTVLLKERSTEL
In words: Inhibition of COX-2 (unknown origin) assessed as inhibition at 100 mg/kg relative to control. The experiment is classed as organism-based.

Experiment [13] is described as follows: Antioxidant activity assessed as DPPH radical scavenging activity incubated for 20 mins by spectrophotometric analysis. The experiment is classed as functional. On the technique in general: Loss of DPPH colour is used to gauge radical scavenging.
Experiment [14] has as its system Rattus norvegicus. In words: Anti-inflammatory activity against Carrageenan-induced paw edema in PO dosed Wistar albino rat assessed as inhibition of edema measured after 3 hr relative to control. It is filed as functional. Further details: scale not given: the % may be the effect or the level left. Background: Carrageenan injected into the paw causes an acute inflammation.

Experiment [15] has as its target T2, Prostaglandin G/H synthase 1 (Ovis aries, UniProt P05979).
T2 sequence (P05979 whole entry): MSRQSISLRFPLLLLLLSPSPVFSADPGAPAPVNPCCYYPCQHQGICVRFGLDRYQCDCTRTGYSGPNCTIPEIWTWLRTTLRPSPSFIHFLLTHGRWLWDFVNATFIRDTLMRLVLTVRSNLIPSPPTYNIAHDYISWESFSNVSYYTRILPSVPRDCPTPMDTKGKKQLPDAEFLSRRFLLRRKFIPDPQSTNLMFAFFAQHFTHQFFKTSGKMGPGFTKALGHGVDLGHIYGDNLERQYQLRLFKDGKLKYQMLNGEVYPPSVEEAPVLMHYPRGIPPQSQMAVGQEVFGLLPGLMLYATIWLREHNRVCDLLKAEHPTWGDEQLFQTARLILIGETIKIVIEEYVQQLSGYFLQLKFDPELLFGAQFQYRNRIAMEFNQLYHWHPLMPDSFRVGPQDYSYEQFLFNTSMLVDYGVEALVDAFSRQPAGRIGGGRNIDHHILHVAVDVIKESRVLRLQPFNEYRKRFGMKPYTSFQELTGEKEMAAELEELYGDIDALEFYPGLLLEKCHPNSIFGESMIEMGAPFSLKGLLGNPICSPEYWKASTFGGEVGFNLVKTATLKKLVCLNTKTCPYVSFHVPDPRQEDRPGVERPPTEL
In words: Inhibition of ovine COX-1 by EIA method.

pIC50: −log10 of the molar value.

Consider `C=CC(CO)[C@@H]1C[C@H]2c3[nH]c4ccccc4c3CCN2C(=O)[C@H]1CO` (stereo partly specified), for which the pIC50 (in general, the IC50 on a negative log10 scale, so that one unit is a factor of ten) in the experiment on RAW264.7 [1] was 5.93.
`C[C@@H]1C[C@H]2[C@@H]3CCC4=CC(=O)C=C[C@]4(C)[C@@]3(F)[C@@H](O)C[C@]2(C)[C@@]1(O)C(=O)CO` [DEXAMETHASONE]: the pIC50 with RAW264.7 [2] is 6.21.
On to `Nc1cc(-c2ccccc2)nn1-c1nc2c(cnn2-c2ccccc2)c(=O)n1-c1ccccc1`, for which the inhibition in vivo (as a rule, the share of the control response that was lost under treatment) at 10 mg/kg with Rattus norvegicus [3] turned out to be 50%.
`NS(=O)(=O)c1ccc(-n2nc(C(=O)NNC(=O)c3cccc(C(F)(F)F)c3)cc2-c2ccccc2)cc1`: the Activity in the experiment with Rattus norvegicus [4] turned out to be 62.48%. For the same molecule, in experiment [5], the Selectivity Index came to 10.
Take `Cc1c(/N=C/c2c(OCc3cc(=O)oc4cc(O)ccc34)ccc3ccccc23)c(=O)n(-c2ccccc2)n1C`: the Activity in [6] was determined as 67.3%.
Consider `CCCC1Nc2cc(C(=O)N/N=C/c3ccc(Cl)c(Cl)c3O)cc(C)c2N1` (stereo unspecified), for which the Activity amounted to 83.5% in the experiment with Rattus norvegicus [7], 79.51% in the experiment with Rattus norvegicus [8], 43.3% with Rattus norvegicus [9] and 57.62% with Rattus norvegicus [10].
For the molecule `COc1ccc2oc(=O)cc(COc3ccc4ccccc4c3/C=N/c3c(C)n(C)n(-c4ccccc4)c3=O)c2c1`, the Activity in experiment [6] worked out at 53.6%.
Take `O=C1CSC(=S)C1NC1=NC2C(C=NN2c2ccccc2)C(=O)N1c1ccccc1` (stereo unspecified): the “inhibition (INH)” value in the experiment with Mus musculus was found to be 45.6%. For the same molecule, in the experiment on Rattus norvegicus [11], the inhibition in vivo at 5 mg/kg was determined as 85.7%.
For `C[C@]12CC[C@H]3[C@@H](CC=C4C[C@@H](O)CC[C@@]43C)[C@@H]1CC[C@@H]2C1=NN(C(N)=S)C(c2cccc(F)c2)C1` (stereo partly specified), in the experiment with RAW264.7 [2], the pIC50 was 6.07.
Consider `CC(=O)Oc1ccccc1C(=O)O`, for which the inhibition (in general, the relative decrease from the control value, in per cent) in experiment [12] came to 11.1%.
Turning to `O=C1O[C@H]([C@@H](O)CO)C(O)=C1O`, the Activity in [13] was 81.3%.
For `C=CC1=CN=CC2C(=O)N3CCc4c([nH]c5ccccc45)C3=CC12` (stereo unspecified), the pIC50 with RAW264.7 [1] is 5.89.
As to `Cc1cc(-c2ccccc2)n(-c2nc3c(cnn3-c3ccccc3)c(=O)n2-c2ccccc2)n1`, the Selectivity Index in [5] is 5.44.
Consider `N#CC(C#N)/N=N/c1ccc2c(c1)CCC2`, for which, in the experiment on Rattus norvegicus [14], the Activity stood at 64.83%.
With `N#CC(/N=N/c1ccc2c(c1)CCC2)=C(\N)N1CCCCC1`, the Activity with Rattus norvegicus [14] is reported as 63.95%.
In [15], `O=C1NC(=O)C(=NNc2cccc(-c3nc4ccccc4[nH]3)c2)C(=O)N1` showed a pIC50 of 5.56.

The values above are taken from ChEMBL document CHEMBL5233249, “Recent advancements in the development of heterocyclic anti-inflammatory agents” (Eur J Med Chem, 2020).
